Reference: ChEMBL document CHEMBL5352429, “Designed symmetrical β-hairpin peptides for treating multidrug-resistant salmonella typhimurium infections” (Eur J Med Chem, 2022)
In brackets after ≈: the same amount, converted by molar mass. Activity calls are given as the source filed them. No cut-off for these calls is given here. Peptide text beside a SMILES is read from it.

How the values were obtained:
Salmonella typhimurium [1] = experiment: Antibacterial activity against Salmonella typhimurium DT104 ATCC 700408 incubated overnight by standard microtiter dilution method; type: functional, Salmonella enterica subsp. enterica serovar Typhimurium; details: Salmonella enterica
RAW264.7 [2] = experiment: Inhibition of LPS-stimulated IL-8 production in mouse RAW264.7 cells at 1 to 128 ug/ml incubated for 24 hrs by ELISA analysis; type: functional, cell-based; details: dose 1-128 µg/ml
RAW264.7 [3] = experiment: Inhibition of LPS-stimulated TNF-alpha production in mouse RAW264.7 cells at 1 to 128 ug/ml incubated for 24 hrs by ELISA analysis; type: functional, cell-based; details: dose 1-128 µg/ml
Escherichia coli = experiment: Antibacterial activity against Escherichia coli O157:H7 CICC 21530 incubated overnight by standard microtiter dilution method; type: functional
Salmonella typhimurium [4] = experiment: Antibacterial activity against Salmonella typhimurium DT104 in the presence of KCl by MH broth based assay; type: functional, Salmonella enterica subsp. enterica serovar Typhimurium; details: Salmonella enterica
[5] = test system: Staphylococcus epidermidis; experiment: Antibacterial activity against methicillin-resistant Staphylococcus epidermidis ATCC 12228 incubated overnight by standard microtiter dilution method; type: functional
[6] = Antibacterial activity against Salmonella enterica subsp. enterica serovar Choleraesuis ATCC 13312 incubated overnight by standard microtiter dilution method; type: functional
[7] = Antibacterial activity against Salmonella dublin CICC 21497 incubated overnight by standard microtiter dilution method; type: functional, Salmonella enterica subsp. enterica serovar Dublin; details: Salmonella enterica
Salmonella typhimurium [8] = experiment: Antibacterial activity against Salmonella typhimurium DT104 in the presence 50% inactivated mouse serum by MH broth based assay; type: functional, Salmonella enterica subsp. enterica serovar Typhimurium; details: Salmonella enterica
Erythrocyte = experiment: Hemolytic activity in human Red blood cells assessed as hemolysis incubated for 1 hrs by absorbance based microplate reader analysis; type: toxicity, cell-based
Staphylococcus aureus [9] = experiment: Antibacterial activity against Staphylococcus aureus ATCC 29213 incubated overnight by standard microtiter dilution method; type: functional
Salmonella typhimurium [10] = experiment: Antibacterial activity against Salmonella typhimurium CICC 21913 incubated overnight by standard microtiter dilution method; type: functional, Salmonella enterica subsp. enterica serovar Typhimurium; details: Salmonella enterica
Lipopolysaccharide (LPS) = experiment: Displacement of BODIPY-TR-cadaverine from Salmonella typhimurium LPS assessed as increase in fluorescence intensity by fluorescence spectrophotometric analysis; details: Salmonella enterica subsp. enterica serovar Typhimurium; dose 0.25-8 µg/ml
[11] = Hemolytic activity in human Red blood cells assessed as hemolysis at 128 ug/ml incubated for 1 hrs by absorbance based microplate reader analysis relative to control; type: toxicity, cell-based, Erythrocyte; details: red blood cells (erythrocytes), at 128 µg/mL, read-out: Activity
RAW264.7 [12] = experiment: Inhibition of LPS-stimulated IL-1beta production in mouse RAW264.7 cells at 1 to 128 ug/ml incubated for 24 hrs by ELISA analysis; type: functional, cell-based; details: dose 1-128 µg/ml
Salmonella typhimurium [13] = experiment: Antibacterial activity against Salmonella typhimurium DT104 in the presence of CaCl2 by MH broth based assay; type: functional, Salmonella enterica subsp. enterica serovar Typhimurium; details: Salmonella enterica
Salmonella enteritidis = experiment: Antibacterial activity against Salmonella enteritidis CICC 21527 incubated overnight by standard microtiter dilution method; type: functional, Salmonella enterica subsp. enterica serovar Enteritidis; details: Salmonella enterica
[14] = Antibacterial activity against Salmonella wandsworth CICC 21504 incubated overnight by standard microtiter dilution method; type: functional, Salmonella enterica subsp. enterica serovar Wandsworth; details: Salmonella enterica
[15] = Antibacterial activity against Salmonella paratyphi C CICC 21512 incubated overnight by standard microtiter dilution method; type: functional, Salmonella enterica subsp. enterica serovar Paratyphi C; details: Salmonella enterica
[16] = Antibacterial activity against Salmonella enterica subsp. enterica serovar Choleraesuis CICC 21493 incubated overnight by standard microtiter dilution method; type: functional
Staphylococcus aureus [17] = experiment: Antibacterial activity against methicillin-resistant Staphylococcus aureus ATCC 43300 incubated overnight by standard microtiter dilution method; type: functional
RAW264.7 [18] = experiment: Inhibition of LPS-stimulated NO production in mouse RAW264.7 cells incubated for 24 hrs by Griess reagent based analysis; type: functional, cell-based; details: dose 1-128 µg/ml
Salmonella typhimurium [19] = experiment: Antibacterial activity against Salmonella typhimurium DT104 in the presence of NaCl by MH broth based assay; type: functional, Salmonella enterica subsp. enterica serovar Typhimurium; details: Salmonella enterica
[20] = Antibacterial activity against Salmonella blockley CICC 21489 incubated overnight by standard microtiter dilution method; type: functional, Salmonella enterica subsp. enterica serovar Blockley; details: Salmonella enterica
Enterococcus faecalis = experiment: Antibacterial activity against Enterococcus faecalis ATCC 29212 incubated overnight by standard microtiter dilution method; type: functional
Salmonella typhimurium [21] = experiment: Antibacterial activity against Salmonella typhimurium DT104 in the presence of FeCl3 by MH broth based assay; type: functional, Salmonella enterica subsp. enterica serovar Typhimurium; details: Salmonella enterica
Salmonella typhimurium [22] = experiment: Antibacterial activity against Salmonella typhimurium CICC 21483 incubated overnight by standard microtiter dilution method; type: functional, Salmonella enterica subsp. enterica serovar Typhimurium; details: Salmonella enterica
Candida albicans = experiment: Antifungal activity against Candida albicans ATCC 10231 incubated overnight by standard microtiter dilution method; type: functional
Salmonella typhimurium [23] = experiment: Antibacterial activity against Salmonella typhimurium DT104 in the presence of NH4Cl by MH broth based assay; type: functional, Salmonella enterica subsp. enterica serovar Typhimurium; details: Salmonella enterica
Salmonella typhimurium [24] = experiment: Antibacterial activity against Salmonella typhimurium DT104 in the presence of MgCl2 by MH broth based assay; type: functional, Salmonella enterica subsp. enterica serovar Typhimurium; details: Salmonella enterica
[25] = test system: Salmonella enterica subsp. enterica serovar Paratyphi B; experiment: Antibacterial activity against Salmonella paratyphi B CICC 21495 incubated overnight by standard microtiter dilution method; type: functional
Salmonella typhimurium [26] = experiment: Antibacterial activity against Salmonella typhimurium DT104 in the presence 25% inactivated mouse serum by MH broth based assay; type: functional, Salmonella enterica subsp. enterica serovar Typhimurium; details: Salmonella enterica
Salmonella paratyphi = experiment: Antibacterial activity against Salmonella paratyphi A CICC 21501 incubated overnight by standard microtiter dilution method; type: functional, Salmonella enterica subsp. enterica serovar Paratyphi A; details: Salmonella enterica
Cell membrane = experiment: Disruption of membrane integrity in Salmonella typhimurium DT104 assessed as increase in fluorescence intensity at 0.5 to 2 times of MIC incubated for 15 mins by PI staining based flow cytometric analysis; type: subcellular; details: Salmonella enterica subsp. enterica serovar Typhimurium

SMILES | MIC (Salmonella typhimurium [1]) [µg/mL] | inhibition (RAW264.7 [2]) | inhibition (RAW264.7 [3]) | MIC (Escherichia coli) [µg/mL] | MIC (Salmonella typhimurium [4]) [µg/mL] | MIC [5] [µg/mL] | MIC [6] [µg/mL] | MIC [7] [µg/mL] | MIC (Salmonella typhimurium [8]) [µg/mL] | MHC (Erythrocyte) [µg/mL] | MIC (Staphylococcus aureus [9]) [µg/mL] | MIC (Salmonella typhimurium [10]) [µg/mL] | Activity (Lipopolysaccharide (LPS)) | hemolysis at 1 h, 128 ug/ml [11] [%] | inhibition (RAW264.7 [12]) | MIC (Salmonella typhimurium [13]) [µg/mL] | MIC (Salmonella enteritidis) [µg/mL] | MIC [14] [µg/mL] | MIC [15] [µg/mL] | MIC [16] [µg/mL] | also measured
CC(C)[C@H](N)C(=O)N[C@@H](CCCCN)C(=O)N[C@@H](CS)C(=O)N[C@H](C(=O)N[C@@H](CCCCN)C(=O)N[C@@H](CO)C(=O)NCC(=O)N[C@@H](CS)C(=O)N[C@@H](CCCCN)C(=O)N[C@H](C(N)=O)C(C)C)[C@@H](C)O (H-VKCTKSGCKV-NH2) | > 128 | Active | Active | > 128 | > 128 | > 128 | > 128 | > 128 | > 128 | > 128 | > 128 | > 128 | Dose-Dependent Effect | < 10 | Active | > 128 | > 128 | > 128 | > 128 | > 128 | MIC (Staphylococcus aureus [17]): > 128 µg/mL; inhibition (RAW264.7 [18]): Dose-Dependent Effect; MIC (Salmonella typhimurium [19]): > 128 µg/mL; MIC [20]: > 128 µg/mL; MIC (Enterococcus faecalis): 32 µg/mL (≈ 30.4 µM); MIC (Salmonella typhimurium [21]): > 128 µg/mL; MIC (Salmonella typhimurium [22]): > 128 µg/mL; MIC (Candida albicans): > 128 µg/mL; MIC (Salmonella typhimurium [23]): > 128 µg/mL; MIC (Salmonella typhimurium [24]): > 128 µg/mL; MIC [25]: > 128 µg/mL; MIC (Salmonella typhimurium [26]): > 128 µg/mL; MIC (Salmonella paratyphi): > 128 µg/mL
CC(C)[C@H](N)C(=O)N[C@@H](CCCCN)C(=O)N[C@H](C(=O)N[C@@H](CCCCN)C(=O)N[C@@H](CS)C(=O)N[C@H](C(=O)N[C@@H](CCCCN)C(=O)N[C@@H](CO)C(=O)NCC(=O)N[C@@H](CS)C(=O)N[C@@H](CCCCN)C(=O)N[C@H](C(=O)N[C@@H](CCCCN)C(=O)N[C@H](C(N)=O)C(C)C)C(C)C)[C@@H](C)O)C(C)C (H-VKVKCTKSGCKVKV-NH2) | > 128 | Active | Active | 64 (≈ 42.5 µM) | > 128 | > 128 | 4 (≈ 2.66 µM) | > 128 | > 128 | > 128 | > 128 | > 128 | Dose-Dependent Effect | < 10 | Active | > 128 | > 128 | > 128 | 64 (≈ 42.5 µM) | > 128 | MIC (Staphylococcus aureus [17]): > 128 µg/mL; inhibition (RAW264.7 [18]): Dose-Dependent Effect; MIC (Salmonella typhimurium [19]): > 128 µg/mL; MIC [20]: > 128 µg/mL; MIC (Enterococcus faecalis): > 128 µg/mL; Activity (Cell membrane): Active; MIC (Salmonella typhimurium [21]): > 128 µg/mL; MIC (Salmonella typhimurium [22]): > 128 µg/mL; MIC (Candida albicans): 16 µg/mL (≈ 10.6 µM); MIC (Salmonella typhimurium [23]): > 128 µg/mL; MIC (Salmonella typhimurium [24]): > 128 µg/mL; MIC [25]: 16 µg/mL (≈ 10.6 µM); MIC (Salmonella typhimurium [26]): > 128 µg/mL; MIC (Salmonella paratyphi): > 128 µg/mL
C[C@@H](O)[C@H](NC(=O)[C@H](CS)NC(=O)[C@H](CCCCN)NC(=O)[C@@H](N)Cc1c[nH]c2ccccc12)C(=O)N[C@@H](CCCCN)C(=O)N[C@@H](CO)C(=O)NCC(=O)N[C@@H](CS)C(=O)N[C@@H](CCCCN)C(=O)N[C@@H](Cc1c[nH]c2ccccc12)C(N)=O (H-WKCTKSGCKW-NH2) | > 128 | Active | Active | 64 (≈ 52.2 µM) | > 128 | 128 (≈ 104 µM) | 8 (≈ 6.53 µM) | > 128 | > 128 | > 128 | > 128 | > 128 | Dose-Dependent Effect | < 10 | Active | > 128 | > 128 | 64 (≈ 52.2 µM) | 64 (≈ 52.2 µM) | > 128 | MIC (Staphylococcus aureus [17]): > 128 µg/mL; inhibition (RAW264.7 [18]): Dose-Dependent Effect; MIC (Salmonella typhimurium [19]): > 128 µg/mL; MIC [20]: > 128 µg/mL; MIC (Enterococcus faecalis): 128 µg/mL (≈ 104 µM); MIC (Salmonella typhimurium [21]): > 128 µg/mL; MIC (Salmonella typhimurium [22]): > 128 µg/mL; MIC (Candida albicans): 64 µg/mL (≈ 52.2 µM); MIC (Salmonella typhimurium [23]): > 128 µg/mL; MIC (Salmonella typhimurium [24]): > 128 µg/mL; MIC [25]: 16 µg/mL (≈ 13.1 µM); MIC (Salmonella typhimurium [26]): > 128 µg/mL; MIC (Salmonella paratyphi): 128 µg/mL (≈ 104 µM)
[H]/N=C(/N)N[C@H]1[C@H](O)[C@@H](O)[C@H](O[C@@H]2O[C@@H](C)[C@](O)(C=O)[C@H]2O[C@@H]2O[C@@H](CO)[C@H](O)[C@@H](O)[C@@H]2NC)[C@@H](N/C(N)=N\[H])[C@@H]1O [STREPTOMYCIN] | – | – | – | – | – | – | – | – | – | > 128 | – | – | – | – | – | – | – | – | – | – | –
